Laboratory results: paper PMC7775851 (Journal of Pharmaceutical Analysis, 2019)

What was measured:
[1] = system: CYP3A; conditions: cited from earlier work
[2] = Stability of ilaprazole racemate stock solution; assay type: physicochemical; conditions: stock solution in acetonitrile, −80 °C for 15 days

- Stability of stock solution (in words) [2]: stable
SMILES: COc1ccnc(C[S+]([O-])c2nc3cc(-n4cccc4)ccc3[nH]2)c1C (racemic) [ilaprazole racemate, ilaprazole]
- Metabolizing enzyme [1]: mainly metabolized by CYP3A
